Where a name gives a salt, the structure may show the parent alone. Where only a bound is given, the exact number is not on record here.

In one assay the target is T1, human EP1 receptor (Homo sapiens, UniProt P34995).
T1 sequence (P34995 1-402): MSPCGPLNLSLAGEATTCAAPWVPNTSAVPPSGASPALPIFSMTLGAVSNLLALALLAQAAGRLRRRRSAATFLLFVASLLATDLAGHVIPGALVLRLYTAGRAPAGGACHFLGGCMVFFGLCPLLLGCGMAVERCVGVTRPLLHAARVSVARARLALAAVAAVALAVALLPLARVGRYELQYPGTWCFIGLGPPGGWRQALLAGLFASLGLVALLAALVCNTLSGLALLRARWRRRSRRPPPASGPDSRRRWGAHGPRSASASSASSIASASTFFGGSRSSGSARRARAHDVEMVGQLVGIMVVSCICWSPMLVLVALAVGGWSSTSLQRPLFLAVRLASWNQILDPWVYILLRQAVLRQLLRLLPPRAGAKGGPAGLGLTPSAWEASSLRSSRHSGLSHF
As to the kind of experiment: human EP1 calcium mobilisation assay. Also on record: expressed in transfected cells. It counts as cell-based. The conditions noted are these: CHO-K1 cells, antagonism of PGE2; averages of a number of experiments; read-out: functional pKi value (human EP1 calcium mobilisation assay) (converted). The method in brief:
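CHO-K1 cells stably transfected with human EP1 or EP3, loaded with Fluo-4 after 24 h culture, treated with compound, then challenged with PGE2. Calcium-driven fluorescence read on FLIPR; pIC50 is half-maximal inhibition of PGE2-induced calcium mobilisation, from curve fitting.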

The target of a further assay is T2, human TP receptor (Homo sapiens, UniProt P21731).
T2 construct: expressed in transfected cells; host or cells: CHO-K1
T2 sequence (P21731 1-343): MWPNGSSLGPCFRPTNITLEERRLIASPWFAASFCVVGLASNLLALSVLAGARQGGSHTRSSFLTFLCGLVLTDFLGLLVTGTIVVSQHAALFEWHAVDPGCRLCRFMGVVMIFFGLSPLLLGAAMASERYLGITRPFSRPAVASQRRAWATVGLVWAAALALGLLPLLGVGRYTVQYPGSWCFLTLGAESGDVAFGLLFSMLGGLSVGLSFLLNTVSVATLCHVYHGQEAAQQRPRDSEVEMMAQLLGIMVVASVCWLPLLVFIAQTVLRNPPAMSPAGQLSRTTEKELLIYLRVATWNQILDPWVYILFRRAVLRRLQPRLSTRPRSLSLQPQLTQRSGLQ
In words: human TP calcium mobilisation assay. The class given is cell-based. The following applies: CHO-K1 cells, antagonism of U46619; averages of a number of experiments; read-out: functional pKi value (human TP calcium mobilisation assay) (converted). As to the method: To determine if a compound has agonist or antagonist activity at the TP receptor a functional calcium mobilisation assay may be performed. Briefly, the antagonist properties of compounds are assessed by their ability to inhibit the mobilisation of intracellular calcium ([Ca^2+]i) in response to activation of TP receptors by the stable TXA2 mimetic U46619 (9,11-dideoxy-11α,9α-epoxy-methanoprostaglandin F2α; commercially available from e.g Sigma-Aldrich). Increasing concentrations of antagonist reduce the amount of calcium that a given concentration of U46619 can mobilise. The net effect is to displace the U46619 concentration-effect curve. The amount of calcium produced is assessed using a calcium-sensitive fluorescent dye such as Fluo-4, AM and a suitable instrument such as a Fluorimetric Imaging Plate Reader (FLIPR). Increasing amounts of [Ca^2+]i produced by receptor activation increase the amount of fluorescence produced by the dye and give rise to an increasing signal. The signal may be detected using the FLIPR instrument and the data generated may be analysed with suitable curve-fitting software. The agonist activity of the compounds are determined by their ability to cause an increase in intracellular mobilisation in the absence of U46619.
The human TP calcium mobilisation assay utilises Chinese hamster ovary-K1 (CHO-K1) cells into which a stable (pCIN; BioTechniques 20 (1996): 102-110) vector containing TP cDNA has previously been transfected. Cells are cultured in suitable flasks containing culture medium such as DMEM:F-12 supplemented with 10% v/v foetal calf serum, 2 mM L-glutamine, 0.25 mg/ml geneticin, 100 μM flurbiprofen and 10 μg/ml puromycin.
For assay, cells are harvested using a proprietary reagent that dislodges cells such as Versene. Cells are re-suspended in a suitable quantity of fresh culture media for introduction into a 96-well plate. Following incubation for 24 hours at 37° C. the culture media is replaced with a medium containing Fluo-4 and the detergent pluronic acid, and a further incubation takes place. Concentrations of compounds are then added to the plate in order to construct concentration-effect curves. This may be performed on the FLIPR in order to assess the agonist properties of the compounds. Concentrations of U46619 are then added to the plate in order to assess the antagonist properties of the compounds.
The data so generated may be analysed by means of a computerised curve-fitting routine. The concentration of compound that elicits a half-maximal inhibition of the calcium mobilisation induced by U46619 (pIC50) may then be estimated, and the percentage activation caused by the compounds directly can be used to determine if there is any agonism present.
(A change in cytosolic calcium serves as a functional read-out for many receptors and channels.)

`CC(C)c1cc2cc(Cl)cc(Cc3ccc(C(=O)O)o3)c2o1` [Example 1, 5-{[5-Chloro-2-(1-methylethyl)-1-benzofuran-7-yl]methyl}-2-furancarboxylic Acid]: the Ki on human EP1 receptor is no more than 316 nM; on human TP receptor, less than 31.6 nM.
Taken in the same sequence, the figures for `Cc1cc(C(=O)O)nn1Cc1cc(Cl)cc2cc(C(C)C)oc12` [Example 3, 1-{[5-Chloro-2-(1-methylethyl)-1-benzofuran-7-yl]methyl}-5-methyl-1H-pyrazole-3-carboxylic Acid] were no more than 316 nM and less than 3160 nM.
Taken in the same sequence, the figures for `CCNCc1ccc(NC(=O)c2cc(C)n(Cc3cc(Cl)cc4cc(C(C)C)oc34)n2)cc1` [Example 15, 1-{[5-Chloro-2-(1-methylethyl)-1-benzofuran-7-yl]methyl}-N-{4-[(ethylamino)methyl]phenyl}-5-methyl-1H-pyrazole-3-carboxamide hydrochloride] were no more than 316 nM and greater than 3160 nM.
In the same order, the values of `Cc1cc(C(=O)Nc2ccc(CN3CCC(O)CC3)cc2)nn1Cc1cc(Cl)cc2cc(C(C)C)oc12` [Example 16, 1-{[5-Chloro-2-(1-methylethyl)-1-benzofuran-7-yl]methyl}-N-{4-[(4-hydroxy-1-piperidinyl)methyl]phenyl}-5-methyl-1H-pyrazole-3-carboxamide hydrochloride] are no more than 316 nM and greater than 3160 nM.
Consider `Cc1cc(C(=O)Nc2ccc(CN3CC[C@@H](O)C3)cc2)nn1Cc1cc(Cl)cc2cc(C(C)C)oc12` [Example 17, 1-{[5-Chloro-2-(1-methylethyl)-1-benzofuran-7-yl]methyl}-N-(4-{[(3R)-3-hydroxy-1-pyrrolidinyl]methyl}phenyl)-5-methyl-1H-pyrazole-3-carboxamide hydrochloride], for which the values for the Ki on human EP1 receptor and on human TP receptor were no more than 316 nM and greater than 3160 nM, respectively.
For the molecule `Cc1cc(C(=O)NN2CCOCC2)nn1Cc1cc(Cl)cc2cc(C3CCCCC3)oc12` [Example 28, 1-[(5-Chloro-2-cyclohexyl-1-benzofuran-7-yl)methyl]-5-methyl-N-4-morpholinyl-1H-pyrazole-3-carboxamide], the Ki on human EP1 receptor is no more than 316 nM; on human TP receptor it was greater than 3160 nM.

For the origin of these results see US20090099169A1, “Benzofuran Compounds As EP1 Receptor Antagonists” (GLAXO GROUP LIMITED, priority 2006, published 2009).
